Results: patent publication US20240279221A1, “HETEROCYCLIC COMPOUNDS AND METHODS OF USE” (Schrödinger, Inc., priority 2021, published 2024)

Experiments:
[1] = molecular target: SOS1:KRAS (G12C) interaction (Homo sapiens (Human), UniProt Q07889); test: SOS1-KRas(G12C) FRET Assay; type: binding; conditions: 0.5 nM His10-SOS1 (res. 564-1049), 2.5 nM GST-KRAS (res. 1-169, G12C); read-out: SOS-KRas(G12C) FRET IC50
In short: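 Compounds were pre-incubated 15 min at 25° C with SOS1 (His10, res. 564-1049; 0.5 nM final) and anti-6His-XL665, then GST-KRAS G12C (res. 1-169; 2.5 nM final) with anti-GST-Eu(K) was added for 2 h at RT. The buffer was PBS, 0.1% BSA, 5 mM MgCl2, 100 mM KF, 5 mM DTT with 0.5% DMSO. The 665/615 nm signal was normalised to DMSO and no-SOS1 controls, and IC50 and Hill coefficient were fitted by non-linear regression.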

human SOS1 = human SOS1 (Homo sapiens (Human), UniProt Q07889); test: Surface Plasmon Resonance (SPR) SOS1 Binding Assay; conditions: biotinylated SOS1 (res. 564-1049), 25° C., kinetic or steady state fit, read-out: KD for hSOS1
In short: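 Biotinylated human SOS1 (res. 564-1049, N-terminal Avi tag) captured on streptavidin chip to ~3,000 RU; 25° C., Tris buffer pH 8.0 with 1 mM MgCl2, 5% DMSO running buffer. Compound series (top 100, 50 or 0.5 μM) injected 60 s, dissociation 600 s; double-referenced KD from 1:1 kinetic or steady-state fit.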

SOS1:KRAS (G12C) interaction, sequence (Q07889 564-1049, stated change not applied): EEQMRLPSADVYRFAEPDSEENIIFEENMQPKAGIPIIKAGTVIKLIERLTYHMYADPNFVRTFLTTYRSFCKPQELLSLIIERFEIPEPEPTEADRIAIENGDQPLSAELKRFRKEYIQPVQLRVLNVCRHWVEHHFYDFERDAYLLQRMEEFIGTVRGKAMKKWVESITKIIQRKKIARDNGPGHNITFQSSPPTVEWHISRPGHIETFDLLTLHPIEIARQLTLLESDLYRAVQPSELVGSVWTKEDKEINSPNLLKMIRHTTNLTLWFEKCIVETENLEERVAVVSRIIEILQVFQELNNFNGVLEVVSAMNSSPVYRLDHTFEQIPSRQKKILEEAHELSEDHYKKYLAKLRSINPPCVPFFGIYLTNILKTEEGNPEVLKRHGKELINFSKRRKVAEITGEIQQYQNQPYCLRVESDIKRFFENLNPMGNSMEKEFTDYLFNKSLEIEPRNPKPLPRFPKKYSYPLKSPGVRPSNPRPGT
human SOS1, sequence (Q07889 564-1049): as the sequence (Q07889 564-1049, stated change not applied) above

| SMILES | IC50 [1] [nM] | Kd (human SOS1) [nM] |
| --- | --- | --- |
| C[C@@H](Nc1nn(C)c(=O)c2cc(=O)n([C@H]3CCOC(C)(C)C3)cc12)c1cccc(C(F)F)c1F (single isomer, unassigned) [Example 83] | 48.7 | 11 |
| CC(=O)c1c(=O)n(C2CC2)cc2c(N[C@H](C)c3cccc(C(F)(F)F)c3C)nn(C)c(=O)c12 [Example 48, (R)-8-acetyl-6-cyclopropyl-2-methyl-4-((1-(2-methyl-3-(trifluoromethyl)phenyl)ethyl)amino)-2,6-dihydropyrido[3,4-d]pyridazine-1,7-dione] | 192 | 75 |
| Cc1c([C@@H](C)Nc2nn(C)c(=O)c3c(OC(C)C)c(=O)n(C4CC4)cc23)cccc1C(F)(F)F [Example 81, (R)-6-cyclopropyl-8-isopropoxy-2-methyl-4-((1-(2-methyl-3-(trifluoromethyl)phenyl)ethyl)amino)-2,6-dihydropyrido[3,4-d]pyridazine-1,7-dione] | 376 | 134 |
| Cc1c([C@@H](C)Nc2nn(C)c(=O)c3c([C@H]4CCCN4)c(=O)n(C4CC4)cc23)cccc1C(F)(F)F [Example 35, 6-cyclopropyl-2-methyl-4-(((R)-1-(2-methyl-3-(trifluoromethyl)phenyl)ethyl)amino)-8-((R)-pyrrolidin-2-yl)-2,6-dihydropyrido[3,4-d]pyridazine-1,7-dione] | 78.4 | 17 |
| C[C@@H](Nc1nn(C)c(=O)c2cc(=O)n(C3CCOCC3)cc12)c1cccc(C(F)(F)[C@@H]2CCCO2)c1F (single isomer, unassigned) [Example 45] | 23.4 | 10 |
| C[C@@H](Nc1nn(C)c(=O)c2cc(=O)n(C34CC(N5CCOCC5)(C3)C4)cc12)c1cccc(C(F)F)c1F [Example 50, (R)-4-((1-(3-(difluoromethyl)-2-fluorophenyl)ethyl)amino)-2-methyl-6-(3-morpholinobicyclo[1.1.1]pentan-1-yl)-2,6-dihydropyrido[3,4-d]pyridazine-1,7-dione] | 54.4 | 29 |
| Cc1cc([C@@H](C)Nc2nn(C)c(=O)c3cc(=O)n(C4CC4)cc23)cc2c1c(C#N)nn2C (single isomer, unassigned) [Example 27] | 1530 | 134 |
| C[C@@H](Nc1nn(C)c(=O)c2cc(=O)n([C@@H]3CCOC[C@H]3F)cc12)c1cccc(C(F)F)c1F (single isomer, unassigned) [Example 31] | 146 | 45 |
| C[C@@H](Nc1nn(C)c(=O)c2cc(=O)n([C@H]3CCOC[C@H]3F)cc12)c1cccc(C(F)F)c1F (single isomer, unassigned) [Example 33] | 31.3 | 8 |
| C[C@H](Nc1nn(C)c(=O)c2cc(=O)n(C3CC3)cc12)c1ccc2c(C#N)nn(C)c2c1 (single isomer, unassigned) [Example 26] | 100000 | > 50000 |
